What was measured:
Jurkat cells = test: (r) Cell cytotoxicity assay; format: cell-based, human; details: 24 hours
Method in brief: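 Viability read by flow cytometry as the fraction of propidium iodide-negative cells (7.5 μg/mL PI, 15 min), relative to 1.0% DMSO control. Beforehand, 1×10^5 Jurkat cells in RPMI/10% FBS were treated 24 h at 37° C., 5% CO2 with test compound at final 20, 5 or 1 μg/mL.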

p38 MAPKα (MAPK14) = p38 MAPKα (MAPK14) (Homo sapiens (Human), UniProt Q16539); test: p38 MAPKα enzyme inhibition (Method 2), Z-LYTE FRET; format: biochemical
Chain of p38 MAPKα (MAPK14) (Q16539 whole entry): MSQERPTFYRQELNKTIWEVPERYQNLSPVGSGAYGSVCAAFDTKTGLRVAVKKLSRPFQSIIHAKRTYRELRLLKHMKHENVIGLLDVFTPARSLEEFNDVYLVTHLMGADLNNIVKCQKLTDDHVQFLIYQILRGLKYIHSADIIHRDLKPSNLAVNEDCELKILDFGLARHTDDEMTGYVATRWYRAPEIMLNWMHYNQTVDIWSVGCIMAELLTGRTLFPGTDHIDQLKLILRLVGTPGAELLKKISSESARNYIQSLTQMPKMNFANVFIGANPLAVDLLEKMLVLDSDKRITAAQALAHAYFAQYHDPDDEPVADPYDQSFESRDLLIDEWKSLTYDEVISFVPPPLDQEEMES
Description: (§1) The enzyme inhibitory activities of compounds disclosed herein are determined by FRET using synthetic peptides labelled with both donor and acceptor fluorophores (Z-LYTE, Invitrogen Ltd., Paisley, UK).
The following two assay variants can be used for determination of p38 MAPKα inhibition.
The inhibitory activities of test compounds against the p38 MAPKα isoform (MAPK14: Invitrogen) are evaluated indirectly by determining the level of activation/phosphorylation of the down-stream molecule, MAPKAP-K2. The p38 MAPKα protein (80 ng/mL, 2.5 μL) is mixed with the test compound (2.5 μL of either 4 μg/mL, 0.4 μg/mL, 0.04 μg/mL or 0.004 μg/mL) for 2 hr at RT. […] The mixture is incubated for 1 hr at RT. Development reagent (protease, 5 μL) is added for 1 hr prior to detection in a fluorescence microplate reader (Varioskan® Flash, ThermoFisher Scientific).
This method follows the same steps as Method 1 above, but utilises a higher concentration of the p38 MAPKα protein (2.5 μL of 200 ng/mL protein instead of 2.5 μL of 80 ng/mL protein) for mixing with the test compound (tested at either 1 μg/mL, 0.1 μg/mL, 0.01 μg/mL or 0.001 μg/mL).
(§2) In all cases, the site-specific protease cleaves non-phosphorylated peptide only and eliminates the FRET signal. Phosphorylation levels of each reaction are calculated using the ratio of coumarin emission (donor) over fluorescein emission (acceptor), for which high ratios indicate high phosphorylation and low ratios indicate low phosphorylation levels.

Syk = Syk (Homo sapiens (Human), UniProt P43405); test: Syk enzyme inhibition, Z-LYTE FRET; format: biochemical
Description: as §1
(§3) The relevant enzyme (3000 ng/mL or 2000 ng/mL respectively, 2.5 μL) is incubated with the test compound (either 1 μg/mL, 0.1 μg/mL, 0.01 μg/mL, or 0.001 μg/mL, 2.5 μL each) for 2 hr at RT. The FRET peptides (8 μM, 2.5 μL), and appropriate ATP solutions (2.5 μL, 800 μM for c-Src, and 60 μM ATP for Syk) are then added to the enzymes/compound mixtures and the mixture incubated for 1 hr. Development reagent (protease, 5 μL) is added for 1 hr prior to detection in a fluorescence microplate reader (Varioskan® Flash, ThermoFisher Scientific).
as §2

c-Src = c-Src (Homo sapiens (Human), UniProt P12931); test: c-Src enzyme inhibition, Z-LYTE FRET; format: biochemical
Chain of c-Src (P12931 whole entry, looked up): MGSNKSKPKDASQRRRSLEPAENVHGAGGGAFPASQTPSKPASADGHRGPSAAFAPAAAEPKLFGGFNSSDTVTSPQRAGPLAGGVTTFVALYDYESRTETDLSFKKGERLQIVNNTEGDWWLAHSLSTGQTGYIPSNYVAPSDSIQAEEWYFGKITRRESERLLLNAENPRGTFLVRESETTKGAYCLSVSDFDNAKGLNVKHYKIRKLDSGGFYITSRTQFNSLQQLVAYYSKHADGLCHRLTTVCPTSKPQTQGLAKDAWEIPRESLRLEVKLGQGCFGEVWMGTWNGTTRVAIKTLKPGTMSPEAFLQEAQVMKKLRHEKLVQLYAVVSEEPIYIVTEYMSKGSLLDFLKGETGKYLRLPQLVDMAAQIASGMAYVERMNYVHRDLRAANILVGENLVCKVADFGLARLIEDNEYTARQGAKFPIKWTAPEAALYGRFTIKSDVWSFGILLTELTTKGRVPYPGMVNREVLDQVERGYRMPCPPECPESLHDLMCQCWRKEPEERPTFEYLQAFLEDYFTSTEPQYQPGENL
Description: as §1
as §3, with “The inhibitory activities of compounds of the invention against c-Src and Syk enzymes (Invitrogen), are evaluated in a similar fashion to that described hereinabove. The relevant” for “The relevant”
as §2

Row | IC50 (p38 MAPKα (MAPK14)) | IC50 (Syk) | IC50 (c-Src) | SMILES | % Viability at 1 μg/mL (Jurkat cells) | % Viability at 5 μg/mL (Jurkat cells) | % Viability at 20 μg/mL (Jurkat cells)
1 | 5 nM | – | – | COc1cc(Nc2cc(Oc3ccc(NC(=O)Nc4cc(C(C)(C)C)cc(NS(C)(=O)=O)c4OC)c4ccccc34)ccn2)ccc1C(=O)N(C)CCCN1CCOCC1 [17(af), 4-[[4-[[4-[[5-tert-butyl-3-(methanesulfonamido)-2-methoxy-phenyl]carbamoylamino]-1-naphthyl]oxy]-2-pyridyl]amino]-2-methoxy-N-methyl-N-(3-morpholinopropyl)benzamide] | 96.7% | 76.2% | 54.1%
2 | – | 393 nM | 20 nM | COc1cc(Nc2cc(Oc3ccc(NC(=O)Nc4cc(C(C)(C)C)cc(NC(=O)COP(=O)(O)O)c4OC)c4ccccc34)ccn2)ccc1C(=O)NCCN1CC[S+]([O-])CC1 [17(cp), 2-((5-(tert-Butyl)-2-methoxy-3-(3-(4-((2-((3-methoxy-4-((2-(1-oxidothiomorpholino)-ethyl)carbamoyl)phenyl)amino)pyridin-4-yl)oxy)naphthalen-1-yl)ureido)phenyl)amino)-2-oxoethyl dihydrogen phosphate] | 97.6% | 96.9% | 94.7%
3 | – | 948 nM | 232 nM | COc1cc(Nc2cc(Oc3ccc(NC(=O)Nc4cc(C(C)(C)C)cc(NS(C)(=O)=O)c4OC)c4ccccc34)ccn2)ccc1S(=O)(=O)N(C)CCN1CCOCC1 [17(o), 1-[5-tert-butyl-3-(methanesulfonamido)-2-methoxy-phenyl]-3-[4-[[2-[3-methoxy-4-[methyl(2-morpholinoethyl)sulfamoyl]anilino]-4-pyridyl]oxy]-1-naphthyl]urea] | – | – | –
4 | – | 809 nM | 150 nM | COc1cc(Nc2cc(Oc3ccc(NC(=O)Nc4cc(C(C)(C)C)cc(NS(C)(=O)=O)c4OC)c4ccccc34)ccn2)ccc1S(=O)(=O)N(C)CCCN1CCOCC1 [Example 13, 1-[5-tert-Butyl-3-(methanesulfonamido)-2-methoxy-phenyl]-3-[4-[[2-[3-methoxy-4-[methyl(3-morpholinopropyl)sulfamoyl]anilino]-4-pyridyl]oxy]-1-naphthyl]urea] | – | – | –
5 | – | 144 nM | 77 nM | COc1cc(Nc2cc(Oc3ccc(NC(=O)Nc4cc(C(C)(C)C)cc(NS(C)(=O)=O)c4OC)c4ccccc34)ccn2)ccc1S(=O)(=O)CCCN1CCOCC1 [Example 20, N-(5-(tert-Butyl)-2-methoxy-3-(3-(4-((2-((3-methoxy-4-((3-morpholinopropyl)sulfonyl)phenyl)-amino)pyridin-4-yl)oxy)naphthalen-1-yl)ureido)phenyl)methanesulfonamide] | 104.0% | 99.3% | 91.8%
6 | – | 15 nM | 16 nM | COc1c(NC(=O)Nc2ccc(Oc3ccnc(Nc4ccc(C(=O)NCCN5CCOCC5)c(N(C)C)c4)c3)c3ccccc23)cc(C(C)(C)C)cc1NS(C)(=O)=O [Example 21] | 101.2% | 82.4% | 77.1%
7 | 40 nM | – | – | COc1cc(Nc2cc(Oc3ccc(NC(=O)Nc4cc(C(C)(C)C)cc(NS(C)(=O)=O)c4OC)c4ccccc34)ccn2)ccc1C(=O)NCCN1CCN(C2CC2)CC1 [Example 26, 4-((4-((4-(3-(5-(tert-Butyl)-2-methoxy-3-(methylsulfonamido)phenyl)ureido)naphthalen-1-yl)oxy)pyridin-2-yl)amino)-N-(2-(4-cyclopropylpiperazin-1-yl)ethyl)-2-methoxybenzamide] | 94.8% | 84.6% | 76.6%

The remaining lines, values behind:

Row | SMILES | IC50 (p38 MAPKα (MAPK14)) | IC50 (Syk) | IC50 (c-Src) | % Viability at 1 μg/mL (Jurkat cells) | % Viability at 5 μg/mL (Jurkat cells) | % Viability at 20 μg/mL (Jurkat cells)
8 | COCCOCCOCCOc1ccc(Nc2cc(Oc3ccc(NC(=O)Nc4cc(C(C)(C)C)cc(NS(C)(=O)=O)c4OC)c4ccccc34)ccn2)cc1C#N [Example 8, N-(5-(tert-Butyl)-3-(3-(4-((2-((3-cyano-4-(2-(2-(2-methoxyethoxy)ethoxy)ethoxy)phenyl)amino)pyridin-4-yl)oxy)naphthalen-1-yl)ureido)-2-methoxyphenyl)methanesulfonamide] | 214 nM | – | – | – | – | –
9 | COc1c(NC(=O)Nc2ccc(Oc3ccnc(Nc4ccc(C(=O)NCCCN5CCOCC5)c(O)c4)c3)c3ccccc23)cc(C(C)(C)C)cc1NS(C)(=O)=O [Example 29, 4-((4-((4-(3-(5-(tert-Butyl)-2-methoxy-3-(methylsulfonamido)phenyl)ureido)naphthalen-1-yl)oxy)pyridin-2-yl)amino)-2-hydroxy-N-(3-morpholinopropyl)benzamide] | – | – | – | 101.2% | 46.6% | 2.0%
10 | COc1cc(Nc2cc(Oc3ccc(NC(=O)Nc4cc(C(C)(C)C)cc(NS(C)(=O)=O)c4OC)c4ccccc34)ccn2)ccc1-n1ccccc1=O [Example 31, N-(5-(tert-Butyl)-2-methoxy-3-(3-(4-((2-((3-methoxy-4-(2-oxopyridin-1 (2H)-yl)phenyl)amino)-pyridin-4-yl)oxy)naphthalen-1-yl)ureido)phenyl)methanesulfonamide] | – | – | – | 99.9% | 97.6% | 99.0%
11 | COc1cc(Nc2cc(Oc3ccc(NC(=O)Nc4cc(C(C)(C)C)cc(C(=O)NCCO)c4OC)c4ccccc34)ccn2)ccc1C(=O)NCCN1CC[S+]([O-])CC1 [Example 32, 5-(tert-Butyl)-N-(2-hydroxyethyl)-2-methoxy-3-(3-(4-((2-((3-methoxy-4-((2-(1-oxidothiomorpholino)ethyl)carbamoyl)phenyl)amino)pyridin-4-yl)oxy)naphthalen-1-yl)ureido)benzamide] | – | – | – | 95.4% | 43.1% | 2.5%
12 | COc1cc(Nc2cc(Oc3ccc(NC(=O)Nc4cc(C(C)(C)C)cc(NS(C)(=O)=O)c4OC)c4ccccc34)ccn2)ccc1C(=O)NCC[N+]1([O-])CCOCC1 [Example 33, 4-(2-(4-((4-((4-(3-(5-(tert-Butyl)-2-methoxy-3-(methylsulfonamido)phenyl)ureido)naphthalen-1-yl)oxy)pyridin-2-yl)amino)-2-methoxybenzamido)ethyl)morpholine 4-oxide] | – | – | – | 104.1% | 95.5% | 69.3%
13 | COc1cc(Nc2cc(Oc3ccc(NC(=O)Nc4cc(C(C)(C)C)cc(NS(C)(=O)=O)c4OC)c4ccccc34)ccn2)ccc1C(=O)NCC(CO)(CO)CO [Example 38, 4-((4-((4-(3-(5-(tert-Butyl)-2-methoxy-3-(methylsulfonamido)phenyl)ureido)naphthalen-1-yl)oxy)pyridin-2-yl)amino)-N-(3-hydroxy-2,2-bis(hydroxymethyl)propyl)-2-methoxybenzamide] | – | – | – | 90.0% | 63.7% | 6.0%
14 | COc1c(NC(=O)Nc2ccc(Oc3ccnc(Nc4ccc(P(C)(=O)O)c(N(C)C)c4)c3)c3ccccc23)cc(C(C)(C)C)cc1NS(C)(=O)=O [Example 68, [4-[[4-[[4-[[5-tert-Butyl-3-(methanesulfonamido)-2-methoxy-phenyl]carbamoylamino]-1-naphthyl]oxy]-2-pyridyl]amino]-2-(dimethylamino)phenyl]-methyl-phosphinic acid] | – | – | – | 95.6% | 92.7% | 90.2%
15 | COc1cc(Nc2cc(Oc3ccc(NC(=O)Nc4cc(C(C)(C)C)cc(NS(C)(=O)=O)c4OC)c4ccccc34)ccn2)ccc1CP(C)(=O)O [Example 70, (4-((4-((4-(3-(5-(tert-Butyl)-2-methoxy-3-(methylsulfonamido)phenyl)ureido)naphthalen-1-yl)oxy)pyridin-2-yl)amino)-2-methoxybenzyl)(methyl)phosphinic acid] | – | – | – | 95.3% | 91.9% | 63.8%
